Laboratory results published in publication PMC9503446, “Effects of Medicinal Leech-Related Cationic Antimicrobial Peptides on Human Blood Cells and Plasma” (Molecules, 2022).
In brackets after ≈: the same amount, converted by molar mass. Residues, ends and D or L forms follow the SMILES beside them. No end group written: not given here.

Legend:
[1] = test system: blood plasma coagulation (intrinsic and final common pathways); experiment: Plasma coagulation assay, activated partial thromboplastin time (APTT); set-up: species or system human; conditions: for APTT change from the control value: 25, 50, 100 μM peptide in plasma; for APTT prolongation versus control: 15 min pre-incubation at room temperature
Protocol: (§1) Plasma samples (50 μL) were incubated for 15 min at room temperature with 0, 25, 50 or 100 μM CAMP, and then the coagulation assay steps were carried out according the manufacturer’s instructions.
(§2) The plasma coagulation tests were performed using an APG4-03-Pkh hemostasis analyzer (EMCO Llc, Moscow, Russia) and MLT-APTT and MLT-THROMBOPLASTIN reagent kits (MLT Llc, Moscow, Russia) according to the manufacturer’s instructions. Testing was performed on Plasma N (normal), a mixed pool of citrate anticoagulated plasma obtained from healthy donors, manufactured by RENAM Rpd, Moscow, Russia. Fifty microliter plasma samples supplemented with CAMPs at different concentrations (or with PBS as control) were pre-incubated at room temperature for 15 min. Afterward, in case of measuring activated partial thromboplastin time (APTT), 50 μL of APTT Reagent were added. The samples were warmed at 37 °C for 3 min, and 50 μL of Calcium Chloride Solution were added to initiate fibrin clot formation. For measuring prothrombin time (PT), pre-incubated plasma samples were warmed at 37 °C for 1 min, and fibrin clot formation was triggered by adding 100 μL of Thromboplastin Reagent.

[2] = test system: blood plasma coagulation (extrinsic and common pathways); experiment: Plasma coagulation assay, prothrombin time (PT); set-up: species or system human; conditions: for Effect on PT: 25, 50, 100 μM peptide in plasma; for PT increase compared to control: 15 min pre-incubation at room temperature
Protocol: as §1, §2

Escherichia coli = conditions: cited from earlier work
Excerpt: Table 1 Cationic antimicrobial peptides (CAMPs) used in this study and their characteristics. | column: MIC, μM (E. coli)

isolated neutrophils = experiment: Luminol-dependent chemiluminescence, neutrophil respiratory burst; type: cell-based, human; conditions: for Neutrophil respiratory burst (luminol-dependent chemiluminescence) in response to peptide-pretreated plasma: final peptide 5 μM or 20 μM, final plasma dilution 1:50, 37 °C
Protocol: Neutrophils and plasma were obtained from the same person. Plasma diluted five times in complete Krebs–Ringer buffer solution was treated with 50 μM or 200 μM CAMP, with plasma dilution and CAMP concentrations being the same as in the samples for hemolysis assay. The final plasma content in samples for CL measurement was restricted to no higher than 2%, since plasma constituents can inhibit luminol-dependent CL due to the scavenging effect. Following the addition of luminol to neutrophils, light emission recording was started. Spontaneous cell activation, if it occurred, was allowed to complete, and then the CAMP-containing plasma or control plasma was added (Figure 6), yielding a final plasma dilution of 1:50 and a final CAMP concentration of 5 μM or 20 μM. […] The effect was dose-dependent (Figure 6).
Chemiluminescence study was conducted at 37 °C with a Lum-1200 chemiluminometer (DISoft Llc, Moscow, Russia) measuring the intensity of emitted light in volts. Assays were performed with the following components in a total volume of 500 μL:435 μL of neutrophil suspension (final, 0.5 × 10^6 cells/mL) in complete Krebs–Ringer buffer solution, 10 μL of luminol (final, 200 μM), 50 μL of five-fold diluted (in the above buffer solution) autologous plasma containing or not containing CAMP at a desired concentration, 5 μL of PMA (final, 160 nM).
Neutrophils were placed in chemiluminometer cuvettes and equilibrated at 37 °C in the cuvette holder, after which luminol was added to each sample and the light emission was continuously recorded. In desired time intervals, plasma mixed with CAMP (or control plasma) and then PMA were added.

[3] = test system: neutrophils in whole blood; experiment: Neutrophil extracellular trap (NET) assay in whole blood; type: cell-based, human; conditions: for NET concentration versus control blood: 100 μM peptide, ex vivo blood, 3 h, 37 °C, no PMA
Protocol: EDTA-anticoagulated capillary blood was obtained via a finger prick. Blood aliquots of 20 μL were placed in 1.5 mL Eppendorf tubes and mixed with 2 μL of a CAMP solution (or 2 μL of PBS in controls). The samples were incubated for 3 h. After the first 1 h, PMA (100 nM final concentration) was added to a part of them, and incubation continued for a further 2 h. Cell settling was prevented by continuous gentle turning the tubes up and down using a Multi Bio RS-24 rotator (Biosan, Riga, Latvia). The blood was retained at the tube bottom by surface tension.
NET counts were performed using standardized blood smears stained by Romanowsky method. The smears were examined using a Motic B microscope (Motic, Xiamen, China). Quantitative assessment of NETs was performed as described previously. NETs among 300–500 leukocytes were counted in the middle third part of the smear, and the NETs-to-leukocyte percentage ratio was calculated. Based on counting results, the number of NETs in 1 μL of blood was calculated. In each experiment, two parallel samples were prepared and three parallel smears were taken from each at each observation point.

erythrocytes [4] = experiment: Hemolysis assay in the presence of autologous plasma; type: cell-based, human
Protocol: The interaction with blood plasma constituents is known to play an important role in the pharmacokinetics and effectiveness of therapeutic agents. For CAMPs, the binding in plasma could decrease their effective concentration at the site of action and, thereby, their antimicrobial activity. To elucidate whether CAMP interaction with cells is affected by plasma, presumably through CAMP binding, we performed the hemolysis assay. The erythrocyte suspension was added to the same volume of PBS containing CAMP at two times the final concentration or PBS containing both CAMP and 20% autologous plasma. Calculations for extracellular hemoglobin were made based on the negative and positive control samples containing or not containing plasma.
The hemolytic activity of CAMPs was determined using a hemolysis assay measuring hemoglobin released from damaged cells. […] The supernatant (200 μL) was transferred to the wells of a microplate, and the absorbance of hemoglobin was measured by a Thermo Electron Multiskan Ascent microplate reader (Thermo Fisher Scientific Inc., Waltham, MA, USA), with a test wavelength of 414 nm as well as 540 nm and a background wavelength of 690 nm. The hemolysis percentage was calculated using the following equation: Hemolysis (%) = {(sample absorbance − negative control)/(positive control − negative control)} × 100.

mononuclear cells = experiment: LDH release cytolysis assay, mononuclear cells; conditions: 50 μM peptide, PBS, 0.5 h, 37 °C; Lysis solution = 100%
Protocol: (§3) The disruptive effect of peptides on the plasma membrane of mononuclear cells and neutrophils was evaluated by the leakage of lactate dehydrogenase (LDH) from damaged cells. Experiments were run in PBS as a medium without calcium and magnesium ions, not to favor neutrophil and monocyte activation.
(§4) Aliquots of cell suspension without or with CAMPs at different concentrations were incubated at 37 °C for 0.5 h. Then, the assay steps were carried out. In each experiment, there were both mononuclear cells and neutrophils from the same healthy subject.
(§5) The cytolytic activity of CAMPs against mononuclear cells and neutrophils was determined using a lactate dehydrogenase (LDH) assay measuring LDH released upon cell lysis. Working cell suspensions in PBS supplemented with […] glucose were adjusted to an optical density of 0.12 at 800 nm, which corresponded to a cell density of about 600 × 10^3 cells/mL. LDH assay was performed using a Cytotoxicity Detection Kit^PLUS (LDH) (Roche Diagnostics, Mannheim, Germany) according to the manufacturer’s protocol. Then, 50 μL aliquots of CAMP solutions of different concentrations were placed in the wells of a microplate. The medium used for preparing CAMP solutions and the kit’s Lysis solution served for negative and positive controls, respectively. […]

neutrophils = experiment: LDH release cytolysis assay, neutrophils; conditions: 50 μM peptide, PBS, 0.5 h, 37 °C; Lysis solution = 100%
Protocol: as §3, §4, §5

erythrocytes [5] = experiment: Morphological observation of isolated erythrocytes (aggregation); type: cell-based, human
Protocol: Pept_3 stood out from the other four CAMPs in that it not only lysed, but also aggregated cells. An erythrocyte aggregate formed is illustrated by Figure 2. Samples for morphological observation of erythrocytes were the same as those for hemolysis assay. After incubation at 37 °C for 0.5 h, the samples were processed to fix with glutaraldehyde for qualitative morphological evaluation with light microscopy. A glutaraldehyde fixation method was applied for isolated cells to prevent damage that can occur during preparing smears, which are good for cells in blood.
Samples for morphological observation of erythrocytes were the same as those for hemolysis assay. After incubation at 37 °C for 0.5 h, the samples were centrifuged at 100× g for 5 min, following which the supernatant was removed and the cells fixed by resuspending them in 0.5 mL of 1% glutaraldehyde solution in PBS. Then, erythrocytes were left for 3 h at room temperature, with regular mixing. The fixed cells were stored at 4 °C until use. The supernatant over settled cells was withdrawn, and a cell aliquot was placed in a small workspace cut in the piece of scotch tape put on a microscope slide. Images were examined using a Motic B light microscope (Motic, Xiamen, China).

Question: What does the source list for “FLIGKAIKRKFCLRSVWNA [pept_7, synthetic short cationic antimicrobial peptide designed by bioinformatic analysis of the medicinal leech genome and microbiome]”?
Answer: APTT change from the control value [1]: did not cause significant changes; Effect on PT [2]: did not cause significant changes; MIC (E. coli) (Escherichia coli): 14.3 µM

Question: With `CCCCCCCCCCCCCC(=O)O[C@@H]1[C@@H](C)[C@@]2(O)[C@@H](C=C(CO)C[C@]3(O)C(=O)C(C)=C[C@@H]23)[C@@H]2C(C)(C)[C@]12OC(C)=O` [PMA, phorbol-12-myristate-13-acetate, reference compound] as the molecule, how does the “ROS production by neutrophils (luminol-dependent chemiluminescence)” value (isolated neutrophils; PMA added after CAMP-containing plasma, final 160 nM) read?
Answer: induced a high ROS production

Question: And the “Neutrophil activation in whole blood (morphology)” value ([3]; 100 nM, with or without CAMPs)?
Answer: resulted in neutrophil activation

Question: Which “Effect of plasma on CAMP-induced hemolysis” value (erythrocytes [4]; 50 μM final peptide (100 μM mixed with five-fold diluted plasma)) does the source give for “RPILIRVRRIRVI-NH2 (C-terminus assumed) [pept_5]” here?
Answer: complete inhibition

Question: And the “Effect of plasma on the hemolytic effect” value (erythrocytes [4]; 100 μM final peptide, autologous plasma final dilution 1:10, 0.5 h, 37 °C)?
Answer: completely inhibited

Question: And the “Lysis of mononuclear cells (LDH release)” value (mononuclear cells)?
Answer: about 20%

Question: And the “Lysis of neutrophils (LDH release)” value (neutrophils)?
Answer: ~15%

Question: What about the “Neutrophil respiratory burst (luminol-dependent chemiluminescence) in response to peptide-pretreated plasma” value (shortened to “Neutrophil respiratory burst”) (isolated neutrophils) of the same molecule?
Answer: no development of the respiratory burst

Question: What about the “NET concentration versus control blood” value [3] of the same molecule?
Answer: No significant difference

Question: And the “APTT change from the control value” [1]?
Answer: No significant APTT change

Question: What about the “Effect on PT” value [2] of the same molecule?
Answer: not significantly affected

Question: And the “MIC (E. coli)” value (Escherichia coli)?
Answer: 77 µM

Question: What does the source list for “RAVIYKIPYNAIASRWIIAPKKC [pept_8, synthetic short cationic antimicrobial peptide designed by bioinformatic analysis of the medicinal leech genome and microbiome]”?
Answer: APTT prolongation versus control ([1]; 100 μM peptide in plasma): about 45%; MIC (E. coli) (Escherichia coli): 24 µM

Question: With `CC(C)C[C@H](NC(=O)[C@H](Cc1ccccc1)NC(=O)[C@H](CS)NC(=O)[C@@H](NC(=O)[C@H](CC(C)C)NC(=O)[C@H](CCCNC(=N)N)NC(=O)[C@H](Cc1c[nH]c2ccccc12)NC(=O)[C@@H](N)CCCNC(=N)N)C(C)C)C(=O)N[C@@H](CS)C(=O)N[C@@H](CCCNC(=N)N)C(=O)N[C@@H](CCCNC(=N)N)C(=O)N[C@@H](CCCCN)C(=O)N[C@@H](CCCCN)C(=O)N[C@H](C(N)=O)C(C)C` [pept_3] (H-RWRLVCFLCRRKKV-NH2; N-terminus and C-terminus assumed) as the molecule, how does the “Neutrophil respiratory burst” value (isolated neutrophils) read?
Answer: CL increase, though relatively low

Question: What about the “NET concentration versus control blood” value [3] of the same molecule?
Answer: No significant difference

Question: What about the “APTT prolongation versus control” value ([1]; 100 μM peptide in plasma) of the same molecule?
Answer: ~390%

Question: What about the “PT increase compared to control” value ([2]; 25 μM peptide in plasma) of the same molecule?
Answer: about 165%

Question: What about the “PT increase compared to control” value ([2]; 50 μM peptide in plasma) of the same molecule?
Answer: 320%

Question: What about the “PT increase compared to control” value ([2]; 100 μM peptide in plasma) of the same molecule?
Answer: ~780%

Question: What about the Erythrocyte aggregation (erythrocytes [5]; 50 μM peptide in PBS, 0.5 h, 37 °C, glutaraldehyde fixation, light microscopy) of the same molecule?
Answer: induces erythrocyte aggregation

Question: What about the “Erythrocyte aggregation, peptide preincubated with plasma” value (erythrocytes [5]; peptide preincubated with plasma) of the same molecule?
Answer: no cell aggregation was observed

Question: And the “MIC (E. coli)” value (Escherichia coli)?
Answer: 17 µM (≈ 31.7 µg/mL)

Question: Which “APTT increase over the control value” ([1]; 25 μM peptide in plasma) does the source give for “RLKRFKRVALRREKTARNFRSIVS [pept_6, synthetic short cationic antimicrobial peptide designed by bioinformatic analysis of the medicinal leech genome and microbiome]” here?
Answer: 1.3 fold

Question: What about the “APTT increase over the control value” ([1]; 50 μM peptide in plasma) of the same molecule?
Answer: 2.1 fold

Question: And the “APTT increase over the control value” ([1]; 100 μM peptide in plasma)?
Answer: 2.9 fold

Question: And the “Effect on PT” value [2]?
Answer: no significant effect

Question: And the “MIC (E. coli)” value (Escherichia coli)?
Answer: >100 µM

Question: Which “Neutrophil respiratory burst” value (isolated neutrophils) does the source give for “KFKKVIWKSFL-NH2 (C-terminus assumed) [pept_4]” here?
Answer: no development of the respiratory burst

Question: And the “NET concentration versus control blood” value [3]?
Answer: No significant difference

Question: And the “APTT change from the control value” [1]?
Answer: No significant APTT change

Question: And the “Effect on PT” value [2]?
Answer: not significantly affected

Question: And the “MIC (E. coli)” value (Escherichia coli)?
Answer: 90 µM
